# Data published in patent US12460177B2, “Composition for promoting efficiency of somatic cell replication” (SEOUL NATIONAL UNIVERSITY HOSPITAL, priority 2018, dated 2025).
# Tested on: H3K9me3 / H3K4me3 binding at the Apobec1 (demethylase) promoter region
# Assay: ChIP-PCR with Apobec1 promoter primers in human mesenchymal stem cells treated with endothelin
# Assay type: cell-based
# Conditions: endothelin treatment, FIG. 1
# Source text: Human mesenchymal stem cells were transfected with siRNA of SMARCA4 or SMARCD2, treated with endothelin, and then harvested. In the present invention, human mesenchymal stem cells (Poietics™ Human Mesenchymal Stem Cells, Lonza) were used. The cells were selected by conducting a human mesenchymal stem cell identification experiment, and identified and classified as human bone marrow-derived stem cells after the expression of a positive cell marker (CD29, CD90, CD44, CD73, CD105 or CD166) for mesenchymal stem cells, the negative identification by a cell marker (CD34, CD45, CD14, HLA-DR or CD19), and the confirmation of multipotency of mesenchymal stem cells.
# Genomic DNA was extracted from the recovered cells, and reacted with a H3K9me3 or H3K4me3 antibody [anti-H3K9me3 (Abcam: cat. no. ab8898), anti-H3K4me3 (Abcam; cat. no. ab8580) or normal rabbit IgG (Cell Signaling Technology: cat. no. #2729): negative control], followed by ChIP-PCR performed using Apobec1 promoter primers that are able to confirm the binding of H3K9me3 or H3K4me3. […]
# Subsequently, the resulting product was heated at 65° C. for 4 hours to remove a crosslink. DNA fragments were collected using a PCR purification kit (Qiagen) and analyzed using qPCR and semi-quantitative PCR, and the results are shown in FIG. 1.
substance,measurement,setting,value
"endothelin (HLDIIW; listed as Mus musculus) [peptide generated in vascular endothelial cells, 21 amino acid residues, two S—S bonds, known as a vasoconstrictive peptide]",binding of H3K4me3 (promoting gene expression) at the demethylase promoter region,ChIP-PCR (anti-H3K4me3),increases
same,H3K9me3 (suppressing gene expression) at the demethylase promoter region,ChIP-PCR (anti-H3K9me3),detached
